In US4829076A, “Novel dihydropyridines having calcium antagonistic and antihypertensive activity” (Alkaloida Vegyeszeti Gyar, priority 1986, dated 1989):
Read-outs that look alike come from different tables or passages of the source.

What was measured:
[1] = tested on: spontaneously hypertensive conscious rats; experiment: Antihypertensive effect in spontaneously hypertensive conscious rats ("SH" rats); assay type: in vivo, rat (Wistar-Okamoto); settings: 10 mg/kg p.o.; for change in vivo at 10 mg/kg: Rattus norvegicus, po
Description: The blood pressure of rats was measured before treatment and hourly after drug administration till the 24th posttreatment hour. The test compounds were administered orally, by gavage.

[2] = tested on: PGF2alpha induced uterus contractions (isolated rat uterus); experiment: In vitro uterus relaxant activity in the isolated rat uterus (inhibition of PGF2alpha induced contraction); settings: 10^-6 M test compound
Description: The test was performed according to the method of Gaddum and Hammeed [Brit. […] The inhibitory activity of 10^-6 M doses of the test compounds on the PGF2alpha induced uterus contractions was determined.

[3] = tested on: anesthetized, normotensive cats; experiment: Hypotensive effect in anesthetized, normotensive cats; assay type: in vivo, cat; settings: 1 mg/kg id.
Description: A tube was inserted in the trachea of cats anesthetized with ip.35 mg/kg of pentobarbital sodium to ensure spontaneous respiration. The femoral artery and vein were both cannulated unilaterally. The vegetative test compounds (adrenaline, isoproterenol) were administered through the venous cannule. The mean arterial blood pressure was measured by joining the arterial cannule to a Statham P23Db pressure transducer and electromanometer. The heart rate was determined by a cardiotachometer triggered by arterial pulse-wave.
Various doses of the test compounds were administered through a cannule inserted into the duodenum.

[4] = target: T1, potential-mediated calcium channel (Rattus norvegicus, UniProt P22002); experiment: Calcium-antagonistic effect on an isolated vessel preparation (portal vein); settings: depolarizing solution (90 mM KCl), CaCl2 2.5 and 5.0 mM, 37° C., pH 7.4, read-out: Inhibition of the potential-mediated calcium channel, IC50
T1 construct: Portal veins were obtained from decapitated male rats; from tissue; host or cells: rat portal vein (longitudinally incised venous segment)
Description: Portal veins were obtained from decapitated male rats weighing 300 to 350 g. The longitudinally incised venous segment was suspended in an organ chamber (10 ml) filled with physiological saline solution under resting tension of 1 g. Its upper end was attached to a HSI force-displacement transducer. Isometric contractions were recorded with a Beckman Dynograph.
After the initial equilibration period in a calcium-free Krebs-Ringer bicarbonate solution (KRB) the vein was exposed to a depolarizing solution (calcium-free KRB containing 90 mM of KCl) for 10 minutes. In order to determine the cumulative contractile responses CaCl2 was added in an end-concentration of 2.5 and 5.0 mM, resp. Each medium was oxygenated with carbogen gas and maintained at 37° C. and pH 7.4.
The influence of the test compounds on the contraction was determined by incubating the veins in the depolarizing solution for 10 minutes before and during exposure to Ca^2+. Each vein preparation was subjected to a single concentration of the test compound.
For each experiment the 100% responses were considered as the maximum contractile responses during the control Ca curves. The contractions after exposure to the test compounds were expressed as the percentage of these values.

[5] = target: T2, 1,4-dihydropyridine receptor; experiment: Receptor binding studies (displacement of 3H-nitrendipine, heart microsomal preparation); settings: displacement of 50% of 3H-nitrendipine
T2 construct: to the heart microsomal preparation; from tissue; host or cells: heart microsomal preparation

[6] = tested on: conscious rats with renal hypertension; experiment: Antihypertensive effect in rats with renal hypertension ("RH" rats); assay type: in vivo, rat (CFY male); settings: 10 mg/kg p.o.
Description: The test was performed according to the method of Grollman [Proc. Soc. Exptl. […] The test compounds were administered orally.

[7] = tested on: conscious rats with DOCA-induced hypertension; experiment: Antihypertensive effect in rats with DOCA-induced hypertension ("DH" rats); assay type: in vivo, rat; settings: for Systolic blood pressure, 0 h: 0 h (baseline)
Description: The test was performed according to Cunning et al. [J. Pharm. Exp. Ther. 161, 88 (1981)].

T1 sequence (P22002 whole entry): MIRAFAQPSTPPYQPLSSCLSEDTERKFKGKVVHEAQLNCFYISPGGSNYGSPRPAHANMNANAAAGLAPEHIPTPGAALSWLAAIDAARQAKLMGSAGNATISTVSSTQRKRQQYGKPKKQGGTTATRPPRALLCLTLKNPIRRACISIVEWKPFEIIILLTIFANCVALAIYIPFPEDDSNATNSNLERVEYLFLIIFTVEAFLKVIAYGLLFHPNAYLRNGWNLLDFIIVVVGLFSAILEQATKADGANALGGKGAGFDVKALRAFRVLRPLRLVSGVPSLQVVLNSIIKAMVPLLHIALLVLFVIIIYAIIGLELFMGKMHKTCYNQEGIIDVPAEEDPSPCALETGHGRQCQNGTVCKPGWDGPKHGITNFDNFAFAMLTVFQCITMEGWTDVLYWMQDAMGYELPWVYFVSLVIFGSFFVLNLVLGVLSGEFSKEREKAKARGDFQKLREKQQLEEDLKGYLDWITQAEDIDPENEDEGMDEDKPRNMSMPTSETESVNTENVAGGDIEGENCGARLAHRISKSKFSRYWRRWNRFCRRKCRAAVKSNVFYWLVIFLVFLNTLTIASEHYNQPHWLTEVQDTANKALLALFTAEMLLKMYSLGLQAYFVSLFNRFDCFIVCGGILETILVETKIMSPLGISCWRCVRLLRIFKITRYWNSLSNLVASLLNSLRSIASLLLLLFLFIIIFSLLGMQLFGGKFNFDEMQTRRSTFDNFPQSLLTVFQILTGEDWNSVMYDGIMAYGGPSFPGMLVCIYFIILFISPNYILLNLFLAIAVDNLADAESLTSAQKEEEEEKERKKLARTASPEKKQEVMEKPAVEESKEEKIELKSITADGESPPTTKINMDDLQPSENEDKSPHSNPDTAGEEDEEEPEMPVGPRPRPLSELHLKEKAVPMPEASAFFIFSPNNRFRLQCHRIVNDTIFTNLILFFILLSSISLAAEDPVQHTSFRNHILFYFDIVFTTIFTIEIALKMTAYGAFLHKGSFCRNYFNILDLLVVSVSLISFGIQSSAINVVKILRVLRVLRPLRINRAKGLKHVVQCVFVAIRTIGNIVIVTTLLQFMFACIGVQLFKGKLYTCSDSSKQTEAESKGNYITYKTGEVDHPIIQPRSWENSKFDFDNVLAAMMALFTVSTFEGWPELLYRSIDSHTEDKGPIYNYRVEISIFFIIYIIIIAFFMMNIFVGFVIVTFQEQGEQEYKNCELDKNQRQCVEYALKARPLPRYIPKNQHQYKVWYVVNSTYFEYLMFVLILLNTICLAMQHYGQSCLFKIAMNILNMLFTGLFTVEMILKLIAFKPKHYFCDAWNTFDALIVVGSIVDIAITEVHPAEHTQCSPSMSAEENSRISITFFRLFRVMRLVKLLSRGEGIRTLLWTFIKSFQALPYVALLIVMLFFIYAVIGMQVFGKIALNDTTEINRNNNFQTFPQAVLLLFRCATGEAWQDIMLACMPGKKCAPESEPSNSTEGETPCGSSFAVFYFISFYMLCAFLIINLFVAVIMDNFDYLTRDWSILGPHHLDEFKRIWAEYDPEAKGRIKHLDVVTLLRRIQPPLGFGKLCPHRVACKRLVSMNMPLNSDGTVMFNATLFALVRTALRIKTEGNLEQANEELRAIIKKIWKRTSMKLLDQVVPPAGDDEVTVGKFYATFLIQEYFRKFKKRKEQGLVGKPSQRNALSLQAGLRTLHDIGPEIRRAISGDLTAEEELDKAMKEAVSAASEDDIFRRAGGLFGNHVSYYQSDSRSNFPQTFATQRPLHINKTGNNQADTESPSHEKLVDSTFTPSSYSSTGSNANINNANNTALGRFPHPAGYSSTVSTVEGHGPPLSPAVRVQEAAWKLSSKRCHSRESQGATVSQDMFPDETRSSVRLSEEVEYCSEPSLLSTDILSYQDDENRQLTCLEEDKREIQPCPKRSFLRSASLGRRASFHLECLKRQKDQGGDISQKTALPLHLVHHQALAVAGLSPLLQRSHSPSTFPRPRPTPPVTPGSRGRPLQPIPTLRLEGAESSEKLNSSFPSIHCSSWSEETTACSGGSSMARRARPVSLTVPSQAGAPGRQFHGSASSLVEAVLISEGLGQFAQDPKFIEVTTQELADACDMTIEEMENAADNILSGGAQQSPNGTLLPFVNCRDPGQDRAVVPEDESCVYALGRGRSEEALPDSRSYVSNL
T1 sequence (P54290 25-943 partner limits assumed): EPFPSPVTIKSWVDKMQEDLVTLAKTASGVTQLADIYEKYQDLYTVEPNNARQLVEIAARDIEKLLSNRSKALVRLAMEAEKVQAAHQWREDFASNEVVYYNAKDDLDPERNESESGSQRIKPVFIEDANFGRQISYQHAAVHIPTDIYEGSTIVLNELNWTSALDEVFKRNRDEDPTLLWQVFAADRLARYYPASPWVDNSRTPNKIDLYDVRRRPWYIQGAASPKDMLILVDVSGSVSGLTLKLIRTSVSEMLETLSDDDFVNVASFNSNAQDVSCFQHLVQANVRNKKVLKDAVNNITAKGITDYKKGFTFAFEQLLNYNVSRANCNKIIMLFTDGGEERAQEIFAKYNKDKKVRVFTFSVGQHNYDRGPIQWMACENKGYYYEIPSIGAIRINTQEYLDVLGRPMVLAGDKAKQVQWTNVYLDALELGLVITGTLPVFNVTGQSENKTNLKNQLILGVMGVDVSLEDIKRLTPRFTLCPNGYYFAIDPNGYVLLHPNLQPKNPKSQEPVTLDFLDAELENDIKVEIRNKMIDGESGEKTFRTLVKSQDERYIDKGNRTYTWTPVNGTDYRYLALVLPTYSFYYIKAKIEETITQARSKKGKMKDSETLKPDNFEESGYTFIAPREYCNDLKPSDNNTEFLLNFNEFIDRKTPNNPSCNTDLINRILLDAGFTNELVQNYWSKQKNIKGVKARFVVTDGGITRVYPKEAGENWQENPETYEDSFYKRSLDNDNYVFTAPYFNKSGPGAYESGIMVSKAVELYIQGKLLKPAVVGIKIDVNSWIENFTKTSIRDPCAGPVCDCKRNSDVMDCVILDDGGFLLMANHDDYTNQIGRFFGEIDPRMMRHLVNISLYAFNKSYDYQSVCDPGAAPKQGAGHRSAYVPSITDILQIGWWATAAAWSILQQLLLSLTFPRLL
T1 sequence (P54290 944-1091 partner limits assumed): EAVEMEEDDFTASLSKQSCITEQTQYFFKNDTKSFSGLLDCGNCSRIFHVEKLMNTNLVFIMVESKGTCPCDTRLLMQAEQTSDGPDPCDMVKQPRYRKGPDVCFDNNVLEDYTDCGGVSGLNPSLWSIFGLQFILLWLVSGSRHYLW

SMILES: COC(=O)C1=C(C)NC(C)=C(C(=O)OC)C1c1ccccc1NC(=O)C(F)(F)F [Example 34, 2,6-Dimethyl-3,5-bis(methoxycarbonyl)-4-(2-trifluoro-acetamidophenyl)-1,4-dihydropyridine]
- Systolic blood pressure, 2 h ([1]; 2 h): 170.0 Hgmm
- Systolic blood pressure, 5 h ([1]; 5 h): 182.0 Hgmm
- Systolic blood pressure, 24 h ([1]; 24 h): 216.0 Hgmm
- change in vivo at 10 mg/kg ([1]; 2 h, read-out: Systolic blood pressure reduction in %, 2 h): -25%
- change in vivo at 10 mg/kg ([1]; 5 h, read-out: Systolic blood pressure reduction in %, 5 h): -19%
- change in vivo at 10 mg/kg ([1]; 24 h, read-out: Systolic blood pressure reduction in %, 24 h): -4%
- Inhibition of PGF2alpha induced contraction [2]: 98.0%
- Mean arterial pressure, 5 min ([3]; 5 min): 90 Hgmm
- Mean arterial pressure, 15 min ([3]; 15 min): 60 Hgmm
- Mean arterial pressure, 30 min ([3]; 30 min): 75 Hgmm
- Mean arterial pressure, 60 min ([3]; 60 min): 90 Hgmm
- Mean arterial pressure, 120 min ([3]; 120 min): 105 Hgmm
- IC50 [4]: 2.5 nM
- IC50 [5]: 16 ± 1.6 nM
- Systolic blood pressure, 0 h ([6]; 0 h (baseline)): 198.0 Hgmm
- Pressure reduction in %, 2 h ([6]; 2 h): -28%
- Systolic blood pressure, 2 h ([6]; 2 h): 141.0 Hgmm
- Pressure reduction in %, 5 h ([6]; 5 h): -14%
- Systolic blood pressure, 5 h ([6]; 5 h): 167.0 Hgmm
- Pressure reduction in %, 24 h ([6]; 24 h): 0%
- Systolic blood pressure, 24 h ([6]; 24 h): 199.0 Hgmm
- Systolic blood pressure, 0 h ([7]; 5 mg/kg p.o.): 192.0 Hgmm
- Pressure reduction in %, 2 h ([7]; 5 mg/kg p.o.): -22%
- Systolic blood pressure, 2 h ([7]; 5 mg/kg p.o.): 150.0 Hgmm
- Pressure reduction in %, 5 h ([7]; 5 mg/kg p.o.): -16%
- Systolic blood pressure, 5 h ([7]; 5 mg/kg p.o.): 163.0 Hgmm
- Pressure reduction in %, 24 h ([7]; 5 mg/kg p.o.): 0%
- Systolic blood pressure, 24 h ([7]; 5 mg/kg p.o.): 193.0 Hgmm
- Systolic blood pressure, 0 h ([7]; 10 mg/kg p.o.): 189.0 Hgmm
- Pressure reduction in %, 2 h ([7]; 10 mg/kg p.o.): -23%
- Systolic blood pressure, 2 h ([7]; 10 mg/kg p.o.): 146.0 Hgmm
- Pressure reduction in %, 5 h ([7]; 10 mg/kg p.o.): -30%
- Systolic blood pressure, 5 h ([7]; 10 mg/kg p.o.): 134.0 Hgmm
- Pressure reduction in %, 24 h ([7]; 10 mg/kg p.o.): -2%
- Systolic blood pressure, 24 h ([7]; 10 mg/kg p.o.): 186.0 Hgmm
